Test results published in ChEMBL document CHEMBL4219215, “Discovery of {4-[4,9-bis(ethyloxy)-1-oxo-1,3-dihydro-2H-benzo[f]isoindol-2-yl]-2-fluorophenyl}acetic acid (GSK726701A), a novel EP4 receptor partial agonist for the treatment of pain” (Bioorg Med Chem Lett, 2018).
Activity calls are given as the source filed them. No cut-off for these calls is given here.

Experiments:
[1] = target: T1, Prostaglandin E2 receptor EP4 subtype (Homo sapiens, UniProt P35408); assay: Partial agonist activity at human EP4 receptor expressed in HEK293-AEQ17 cells assessed as cAMP accumulation by aequorin luminescence assay; format: functional, cell-based
[2] = target: T1, Prostaglandin E2 receptor EP4 subtype; assay: Displacement of [3H]PGE2 from human EP4 receptor expressed in HEK 293 (EBNA) cell membranes incubated for 60 mins by scintillation counting method
[3] = test system: Rattus norvegicus; assay: Analgesic activity in rat model of Freund's complete adjuvant-induced acute inflammatory pain assessed as reversal of FCA-induced hypersensitivity at 3 mg/kg, po relative to untreated control; format: functional
[4] = Total drug level in blood of orally dosed rat model of Freund's complete adjuvant-induced acute inflammatory pain assessed as reduction in reversal of hypersensitivity; format: ADME, organism-based; conditions: in vivo, po, read-out: Drug uptake
[5] = Half life in rat at 1 mg/kg, po; format: ADME, organism-based; conditions: in vivo
[6] = test system: Rattus norvegicus; assay: Volume of distribution at steady state in rat at 1 mg/kg, […]; format: ADME, organism-based; conditions: in vivo
[7] = test system: Rattus norvegicus; assay: Analgesic activity in rat model of Freund's complete adjuvant-induced acute inflammatory pain assessed as reversal of FCA-induced hypersensitivity at 10 mg/kg, po pre-challenged with 3 mg/kg, po selective EP4 antagonist GW627368X; format: functional, organism-based
[8] = test system: Rattus norvegicus; assay: Analgesic activity in orally dosed rat model of Freund's complete adjuvant-induced acute inflammatory pain assessed as reversal of FCA-induced hypersensitivity; format: functional; conditions: po
[9] = Blood clearance in rat at 1 mg/kg, po; format: ADME, organism-based
[10] = test system: Rattus norvegicus; assay: Analgesic activity in rat model of Freund's complete adjuvant-induced acute inflammatory pain assessed as reversal of FCA-induced hypersensitivity at 10 mg/kg, po relative to untreated control; format: functional
[11] = test system: Rattus norvegicus; assay: Analgesic activity in rat model of chronic joint pain assessed as reversal of pain by measuring weight bearing level at 30 mg/kg, po dosed twice daily for 5 days relative to untreated control; conditions: 120 h, read-out: INH
[12] = Intrinsic clearance in rat liver microsomes; format: ADME, microsome
[13] = target: T2, Cytochrome P450 3A4 (Homo sapiens, UniProt P08684); assay: Inhibition of human recombinant CYP3A4 using 7BQ substrate; format: ADME
[14] = target: T2, Cytochrome P450 3A4; assay: Inhibition of human recombinant CYP3A4 using DEF substrate; format: ADME
[15] = target: T3, Cytochrome P450 1A2 (Homo sapiens, UniProt P05177); assay: Inhibition of human recombinant CYP1A2; format: ADME
T3 sequence (P05177 whole entry): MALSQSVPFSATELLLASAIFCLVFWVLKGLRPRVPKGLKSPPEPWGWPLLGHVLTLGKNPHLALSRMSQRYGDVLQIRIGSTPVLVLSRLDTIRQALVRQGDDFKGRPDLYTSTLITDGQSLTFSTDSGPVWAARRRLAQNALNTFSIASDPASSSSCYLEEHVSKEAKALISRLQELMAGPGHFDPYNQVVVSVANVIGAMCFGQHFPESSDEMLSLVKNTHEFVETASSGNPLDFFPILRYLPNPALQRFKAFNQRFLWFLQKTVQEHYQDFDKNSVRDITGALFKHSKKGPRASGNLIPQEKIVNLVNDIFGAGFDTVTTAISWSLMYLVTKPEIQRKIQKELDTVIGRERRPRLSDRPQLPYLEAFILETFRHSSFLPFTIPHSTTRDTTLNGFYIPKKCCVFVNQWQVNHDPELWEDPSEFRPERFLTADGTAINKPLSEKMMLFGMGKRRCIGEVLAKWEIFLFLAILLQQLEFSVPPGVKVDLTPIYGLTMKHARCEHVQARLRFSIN

[16] = Intrinsic clearance in human liver microsomes; format: ADME, microsome
[17] = target: Cytochrome P450 2C9 (Homo sapiens, UniProt P11712); assay: Inhibition of human recombinant CYP2C9; format: ADME
[18] = target: Cytochrome P450 2D6 (Homo sapiens, UniProt P10635); assay: Inhibition of human recombinant CYP2D6; format: ADME
[19] = target: Cytochrome P450 2C19 (Homo sapiens, UniProt P33261); assay: Inhibition of human recombinant CYP2C19; format: ADME
[20] = test system: Rattus norvegicus; assay: Analgesic activity in rat model of chronic constriction injury-induced neuropathic pain assessed as reversal of mechanical allodynia at 30 mg/kg dosed twice daily for 8 days relative to untreated control; format: functional; conditions: 192 h

T1 sequence (P35408 whole entry): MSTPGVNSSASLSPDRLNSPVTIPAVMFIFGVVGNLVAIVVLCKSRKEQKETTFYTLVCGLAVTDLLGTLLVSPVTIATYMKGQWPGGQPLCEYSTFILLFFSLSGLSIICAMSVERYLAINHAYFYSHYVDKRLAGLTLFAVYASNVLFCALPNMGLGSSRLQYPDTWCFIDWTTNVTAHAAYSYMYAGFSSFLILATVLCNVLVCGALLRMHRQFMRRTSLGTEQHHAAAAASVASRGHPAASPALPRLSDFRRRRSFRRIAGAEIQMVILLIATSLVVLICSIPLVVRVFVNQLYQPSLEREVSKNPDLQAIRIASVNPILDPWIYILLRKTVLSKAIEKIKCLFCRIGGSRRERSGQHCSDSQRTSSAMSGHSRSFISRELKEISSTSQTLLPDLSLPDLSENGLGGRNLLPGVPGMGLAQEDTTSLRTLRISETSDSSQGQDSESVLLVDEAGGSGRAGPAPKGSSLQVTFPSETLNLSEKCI
T2 sequence (P08684 whole entry): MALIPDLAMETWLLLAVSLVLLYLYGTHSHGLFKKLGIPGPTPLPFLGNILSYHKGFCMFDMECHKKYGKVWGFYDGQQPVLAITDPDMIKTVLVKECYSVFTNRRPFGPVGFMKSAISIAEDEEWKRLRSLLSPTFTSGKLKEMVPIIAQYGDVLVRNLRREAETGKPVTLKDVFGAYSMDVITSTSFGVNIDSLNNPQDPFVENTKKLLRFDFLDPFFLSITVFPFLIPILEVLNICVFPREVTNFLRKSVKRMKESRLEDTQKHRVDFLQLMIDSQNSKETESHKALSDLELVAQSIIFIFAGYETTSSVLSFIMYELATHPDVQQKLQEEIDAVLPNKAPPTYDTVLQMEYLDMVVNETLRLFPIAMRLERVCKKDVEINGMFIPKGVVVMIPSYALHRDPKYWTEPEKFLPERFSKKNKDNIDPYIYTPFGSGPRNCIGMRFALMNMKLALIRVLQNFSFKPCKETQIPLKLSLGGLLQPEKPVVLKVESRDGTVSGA
Chain of Cytochrome P450 2C9 (P11712 whole entry): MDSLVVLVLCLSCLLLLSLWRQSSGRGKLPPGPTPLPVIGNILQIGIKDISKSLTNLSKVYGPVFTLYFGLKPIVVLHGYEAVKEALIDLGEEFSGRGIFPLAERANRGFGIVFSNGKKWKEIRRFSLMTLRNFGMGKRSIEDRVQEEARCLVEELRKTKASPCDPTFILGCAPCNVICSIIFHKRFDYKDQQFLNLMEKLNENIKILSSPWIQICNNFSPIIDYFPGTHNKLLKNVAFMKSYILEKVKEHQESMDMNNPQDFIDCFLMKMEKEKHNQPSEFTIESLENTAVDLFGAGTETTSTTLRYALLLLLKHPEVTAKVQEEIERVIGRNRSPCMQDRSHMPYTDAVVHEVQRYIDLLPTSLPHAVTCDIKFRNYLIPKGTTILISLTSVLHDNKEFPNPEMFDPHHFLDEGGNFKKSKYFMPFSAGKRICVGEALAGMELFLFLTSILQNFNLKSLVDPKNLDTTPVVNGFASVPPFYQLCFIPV
Chain of Cytochrome P450 2D6 (P10635 whole entry): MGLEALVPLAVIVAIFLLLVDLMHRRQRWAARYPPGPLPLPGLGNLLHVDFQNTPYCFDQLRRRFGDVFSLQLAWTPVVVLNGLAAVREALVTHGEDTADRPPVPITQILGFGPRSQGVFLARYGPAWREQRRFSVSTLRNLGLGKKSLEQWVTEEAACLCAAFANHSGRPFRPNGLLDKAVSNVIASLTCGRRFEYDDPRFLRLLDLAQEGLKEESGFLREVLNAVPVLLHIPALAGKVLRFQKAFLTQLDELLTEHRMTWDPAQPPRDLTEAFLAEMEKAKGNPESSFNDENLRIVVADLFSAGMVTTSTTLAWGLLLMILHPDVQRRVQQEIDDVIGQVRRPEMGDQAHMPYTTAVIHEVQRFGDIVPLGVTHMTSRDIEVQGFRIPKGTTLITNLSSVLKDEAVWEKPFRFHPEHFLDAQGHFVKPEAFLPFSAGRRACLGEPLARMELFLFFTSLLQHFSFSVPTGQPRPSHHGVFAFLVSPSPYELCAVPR
Chain of Cytochrome P450 2C19 (P33261 whole entry): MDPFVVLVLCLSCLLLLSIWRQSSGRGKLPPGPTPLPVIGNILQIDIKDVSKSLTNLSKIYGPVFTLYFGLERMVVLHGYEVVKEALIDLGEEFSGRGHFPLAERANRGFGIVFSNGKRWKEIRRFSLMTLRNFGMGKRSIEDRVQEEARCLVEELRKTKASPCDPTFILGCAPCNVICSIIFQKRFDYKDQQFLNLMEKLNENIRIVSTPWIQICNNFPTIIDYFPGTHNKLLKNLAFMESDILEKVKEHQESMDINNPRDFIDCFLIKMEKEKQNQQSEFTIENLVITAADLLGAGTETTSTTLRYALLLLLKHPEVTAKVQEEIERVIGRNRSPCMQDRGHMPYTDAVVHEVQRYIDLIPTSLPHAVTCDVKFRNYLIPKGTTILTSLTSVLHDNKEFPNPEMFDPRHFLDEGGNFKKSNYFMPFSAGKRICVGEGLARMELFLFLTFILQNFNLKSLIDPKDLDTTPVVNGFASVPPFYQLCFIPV

Structure (SMILES) | EC50 [1] | Ki [2] | further results
CCCCOc1c2c(c(OCCCC)c3ccccc13)C(=O)N(c1ccc(CC(=O)O)cc1)C2 | 200 nM | 2000 nM | 
CCOc1c2c(c(OCC)c3ccccc13)C(=O)N(c1ccc(CC(=O)O)cc1Cl)C2 | 5.01 nM |  | Activity [3]: 14%
CCOc1c2c(c(OCC)c3ccccc13)C(=O)N(c1ccc(CC(=O)O)cc1F)C2 | 3.98 nM |  | Activity [3]: 5%
CCOc1c2c(c(OCC)c3ccccc13)C(=O)N(c1ccc(CC(=O)O)cc1)C2 | 20 nM | 79.4 nM | concentration [4]: 5 to 11 µM; half-life [5]: 8.5 h; Vdss [6]: 0.3 L/kg; Activity [7]: inactive; ED50 [8]: 1.5 mg/kg; CL/F [9]: 0.6 mL/min/kg
CCCOc1c2c(c(OCCC)c3ccccc13)C(=O)N(c1ccc(CC(=O)O)cc1)C2 | 126 nM | 631 nM | 
CCOc1c2c(c(OCC)c3ccccc13)C(=O)N(c1ccc(C(C)C(=O)O)cc1)C2 (stereo unspecified) | > 1000 nM | 200 nM | 
CCOc1c2c(c(OCC)c3cc(C)ccc13)C(=O)N(c1ccc(CC(=O)O)cc1)C2=O | 20 nM | 158 nM | half-life [5]: 31.7 h; Activity [10]: 76%
CCCCCCOc1c2c(c(OCCCCCC)c3ccccc13)C(=O)N(c1ccc(CC(=O)O)cc1)C2 | > 1000 nM | > 6310 nM | 
CCOc1c2c(c(OCC)c3ccccc13)C(=O)N(c1ccc(CC(=O)O)c(C)c1)C2 | > 1000 nM |  | 
CCOc1c2c(c(OCC)c3ccccc13)C(=O)N(c1ccc(CC(=O)O)cc1Br)C2 | 5.01 nM |  | Activity [10]: 47%
CCOc1c2c(c(OCC)c3cc(F)ccc13)C(=O)N(c1ccc(CC(=O)O)cc1)C2=O | 79.4 nM |  | 
Cc1ccc(-c2cc(C(F)(F)F)nn2-c2ccc(S(N)(=O)=O)cc2)cc1 [CELECOXIB] |  |  | inhibition in vivo at 30 mg/kg [11]: 100%; Activity [10]: Active
CCOc1c2c(c(OCC)c3ccccc13)C(=O)N(c1ccc(CC(=O)O)cc1)C2=O | 25.1 nM | 158 nM | CLH [12]: < 0.5 mL/min/g; IC50 [13]: > 100000 nM; half-life [5]: 19.9 h; Vdss [6]: 0.28 L/kg; IC50 [14]: > 100000 nM; IC50 [15]: 65000 nM; CLH [16]: < 0.5 mL/min/g; IC50 [17]: > 100000 nM; IC50 [18]: 42000 nM; CL/F [9]: 0.2 mL/min/kg; IC50 [19]: > 100000 nM
CCOc1c2c(c(OCC)c3ccccc13)C(=O)N(c1ccc(CC(=O)O)cc1OC)C2 | 10 nM |  | 
CCOc1c2c(c(OCC)c3ncccc13)C(=O)N(c1ccc(CC(=O)O)cc1)C2=O | > 1000 nM | 31.6 nM | 
CCOc1c2c(c(OCC)c3ccccc13)C(=O)N(c1ccc(CC(=O)O)cc1C(F)(F)F)C2 | 50.1 nM |  | 
COc1c2c(c(OC)c3ccccc13)C(=O)N(c1ccc(CC(=O)O)cc1)C2=O | 200 nM |  | 
CC(C)Oc1c2c(c(OC(C)C)c3ccccc13)C(=O)N(c1ccc(CC(=O)O)cc1)C2 | 39.8 nM | 398 nM | 
CCOc1c2c(c(OCC)c3ccccc13)C(=O)N(c1ccc(CC(=O)O)c(Cl)c1)C2 | > 1000 nM |  | 
CCOc1c2c(c(OCC)c3ccccc13)C(=O)N(c1ccc(CC(=O)O)cc1C)C2 | 7.94 nM |  | Activity [3]: 19%
NCC1(CC(=O)O)CCCCC1 [GABAPENTIN] |  |  | inhibition in vivo at 30 mg/kg [20]: 100%
CCOc1c2c(c(OCC)c3ccccc13)CN(c1ccc(CC(=O)O)cc1)C2 | 251 nM | 631 nM | 
